Reference: US4584291A, “9-deoxy-9-tetrazolyl-derivatives of clavulanic acid, their preparation and their use” (Beecham Group p.l.c., priority 1980, dated 1986)
≈ marks a conversion by molar mass, not a printed value.

What was measured:
E.coli JT39 = assay: standard MIC test, antibacterial activity of compound alone; format: cell-based, Escherichia coli; details: for MIC: Escherichia coli
Source text: (§1) In a standard MIC test the following antibacterial activities were obtained.

K. aerogenes E70 [1] = assay: as above; format: cell-based, Klebsiella aerogenes; details: for MIC: Klebsiella aerogenes
Source text: as §1

St. Aureus Russell [2] = assay: as above; format: cell-based, Staphylococcus aureus; details: for MIC: Staphylococcus aureus
Source text: as §1

K. aerogenes E70 [3] = assay: standard MIC test, synergy of tetrazolyl derivatives with amoxycillin; format: cell-based, Klebsiella aerogenes
E. coli JT39 = assay: as above; format: cell-based, Escherichia coli
Source text: In a standard MIC test the following data were obtained for the synergistic activity of tetrazolyl derivatives with amoxycillin.

St. Aureus Russell [4] = assay: as above; format: cell-based, Staphylococcus aureus
[5] = amoxycillin plus compound at 1.0 μg/ml
[6] = amoxycillin plus compound at 5.0 μg/ml

Row | Compound | MIC (E.coli JT39) | MIC (K. aerogenes E70 [1]) | MIC (St. Aureus Russell [2]) | MIC amoxycillin (K. aerogenes E70 [3]; [5]) | MIC amoxycillin (K. aerogenes E70 [3]; [6]) | MIC (antibacterial activity) (E.coli JT39) | MIC (antibacterial activity) (K. aerogenes E70 [1]) | MIC (antibacterial activity) (St. Aureus Russell [2]) | MIC amoxycillin (E. coli JT39; [5]) | MIC amoxycillin (St. Aureus Russell [4]; [5]) | MIC amoxycillin (St. Aureus Russell [4]; [6]) | also measured
1 | O=C(O)C1C(=CCn2ncnn2)OC2CC(=O)N21 (centres unmarked) [Example 7, Lithium 9-tetrazol-2-yldoexyclavulanate] | 16 µg/mL (≈ 63.7 µM) | 16 µg/mL (≈ 63.7 µM) | 16 µg/mL (≈ 63.7 µM) |  |  |  |  |  |  |  |  | 
2 | Nc1nnnn1CC=C1OC2CC(=O)N2C1C(=O)[O-].[Li+] (centres unmarked) [Example 10, Lithium 9-(5-aminotetrazolyl)deoxyclavulanate] |  |  |  | 3.1 µg/mL | 0.4 µg/mL | 8 µg/mL | 31.2 µg/mL | 8 µg/mL | 4.0 µg/mL | 0.3 µg/mL | 0.04 µg/mL | 
3 | CCOC(=O)c1nnnn1CC=C1OC2CC(=O)N2C1C(=O)O (centres unmarked) [Example 14, Lithium 9-(5-ethoxycarbonyltetrazol-1-yl)deoxyclavulanate] | 8 µg/mL (≈ 24.7 µM) | 31.2 µg/mL (≈ 96.5 µM) | 8 µg/mL (≈ 24.7 µM) |  |  |  |  |  |  |  |  | 
4 | O=C(O)c1nnnn1CC=C1OC2CC(=O)N2C1C(=O)O (centres unmarked) [Example 15, Disodium 9-(5-carboxylatotetrazol-1-yl)deoxyclavulanate] | 16 µg/mL | 31.2 µg/mL | 16 µg/mL |  |  |  |  |  |  |  |  | 
5 | O=C(O)C1C(=CCn2cnnn2)OC2CC(=O)N21 (centres unmarked) [Example 18, Lithium 9-(tetrazol-1-yl)deoxyclavulanate] | 16 µg/mL (≈ 63.7 µM) | 62.5 µg/mL (≈ 249 µM) | 16 µg/mL (≈ 63.7 µM) |  |  |  |  |  |  |  |  | 
6 | Cc1nnnn1CC=C1OC2CC(=O)N2C1C(=O)O (centres unmarked) [Example 25, Potassium 9-(5'-methyltetrazol-1'-yl)-9-deoxyclavulanate] | 8 µg/mL | 62.5 µg/mL | 16 µg/mL |  |  |  |  |  |  |  |  | 
7 | O=C(O)C1C(=CCn2nnnc2-c2ccccc2)OC2CC(=O)N21 (centres unmarked) [Example 27, Potassium 9-(5'-phenyltetrazol-1'-yl)-9-deoxyclavulanate] | 125 µg/mL | > 500 µg/mL | 4 µg/mL |  |  |  |  |  |  |  |  | 
8 | O=CNc1nnnn1CC=C1OC2CC(=O)N2C1C(=O)[O-].[Li+] (centres unmarked) [Example 35, Lithium 9-(5-formamidotetrazolyl)deoxyclavulanate] |  |  |  | 6.2 µg/mL | 1.6 µg/mL | 31.2 µg/mL | 62.5 µg/mL | 16 µg/mL | 8.0 µg/mL | 0.6 µg/mL | 0.16 µg/mL | MIC amoxycillin (E. coli JT39; [6]): 4.0 µg/mL
9 | CC1(C)S[C@@H]2[C@H](NC(=O)[C@H](N)c3ccc(O)cc3)C(=O)N2[C@H]1C(=O)O [amoxycillin, reference compound] |  |  |  |  |  |  |  |  |  |  |  | MIC amoxycillin (K. aerogenes E70 [3]; amoxycillin alone): 1000 µg/mL; MIC amoxycillin (E. coli JT39; amoxycillin alone): 2000 µg/mL; MIC amoxycillin (St. Aureus Russell [4]; amoxycillin alone): 500 µg/mL
10 | Sodium 9-(5-acetamidotetrazolyl)deoxyclavulanate [Example 12] |  |  |  | 3.1 µg/mL | 1.5 µg/mL | 16 µg/mL | 31.2 µg/mL | 16 µg/mL | 4.0 µg/mL | 0.3 µg/mL | 0.08 µg/mL | MIC amoxycillin (E. coli JT39; [6]): ≤ 0.5 µg/mL
